In brackets after ≈: the same amount, converted by molar mass. Like-named read-outs stand apart in the source and are kept apart here.
Experiments:
[1] = tested on: pqsA promoter (PA14 PpqsA-GFPASV); experiment: pqsA-GFP reporter expression; format: cell-based, Pseudomonas aeruginosa; details: for % Production pqsA-GFP: PA14 PpqsA-GFPASV, 50µM per b210 (method b76 says 10 µM)
Description: The expression levels of pqsA, which is representative of the pqsABCDE operon transcription, were monitored in the presence of the MvfR inhibitors using PA14 cells containing the PpqsA-GFPASV, a reporter construct of the pqsA promoter fused to a short half-life GFP gene in, such that quantitative quenching of fluorescence corresponds to pqsA promoter repression[22],[32],[48]. […] GFP fluorescence levels were measured at λex = 485 nm/λem = 535 nm after 10 seconds of shaking every 15 min up to 12 h. The IC50 of PpqsA-GFP expression levels was performed as above using the same 13 different concentrations (0.0122–50 μM) for each of the 13 compounds tested.

MvfR protein (MvfRC87) = target: T1, MvfR protein (MvfRC87) (Pseudomonas aeruginosa, UniProt Q9I4X0); format: binding; details: SPR
T1 construct: The MvfRC87 protein purified as in Xiao et. al., 2006; made in house
T1 sequence (Q9I4X0 87-332): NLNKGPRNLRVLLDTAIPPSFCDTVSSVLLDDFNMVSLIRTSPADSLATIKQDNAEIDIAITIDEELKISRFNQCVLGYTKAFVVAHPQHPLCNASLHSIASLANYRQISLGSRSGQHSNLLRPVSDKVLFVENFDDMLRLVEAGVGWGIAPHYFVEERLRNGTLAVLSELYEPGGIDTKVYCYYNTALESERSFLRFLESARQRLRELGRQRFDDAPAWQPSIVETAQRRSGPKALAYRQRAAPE
Description: The selected compounds were tested for their ability to bind to MvfR. Target validation was carried out by using surface plasmon resonance (SPR). The MvfRC87 protein purified as in Xiao et. al., 2006[33] was covalently immobilized on a CM7 Series S sensor chip using an amine coupling reagent kit (GE Healthcare) at the range level of 3000 to 5000 response units (RU). RU was analyzed by Biacore T200 evaluation software 2.0 (GE Healthcare). The relative response units (RUs) 5 seconds before the end of the association were extracted from the double-reference-corrected sensor grams at different concentrations. These responses were plotted against their respective concentrations for MvfR inhibitor alone and in the presence of native MvfR ligand PQS and compared to the calculated responses for the mixture expected for different binding sites.

[2] = tested on: pyocyanin production in PA14; experiment: Pyocyanin production assay; details: for % Production Pyocyanin: PA14, 50µM of each inhibitor (method says 10 μM), vs vehicle
Description: The over-day culture was grown to OD600nm 1.5., diluted again at 1:10,000 in 5 mL LB and incubated with 10 μM of the test compound or the vehicle control for 18 hours at 37 °C and 200 rpm in an incubator shaker. After 18 h, 1 mL of culture was centrifuged for 2 min at 20.000 x g. The supernatant was transferred to a new tube, 200 μL of this were loaded in a flat-bottom 96-well plate, and the pyocyanin levels were quantified by measuring at OD690nm in the infinite F200 plate reader using the Magellan software (Tecan, Switzerland). […] The percent of pyocyanin was calculated compared to the PA14 culture grown in the absence of compounds.
To determine the IC50 of pyocyanin production, we followed the same process as above. […] Using GraphPad Prism Software, the IC50 curve was plotted against percent inhibition of pyocyanin production at each concentration using PA14 in the absence of compounds as a control.

[3] = tested on: MvfR-regulated small molecules in PA14; experiment: Production of HAQs, 2-AA, DHQ and AA in PA14 cultures (LC-MS); details: for activity at 50 µM / inhibition at 50 µM: Pseudomonas aeruginosa
[4] = tested on: 16 MDR P. aeruginosa clinical isolates; experiment: Pyocyanin production in MDR clinical isolates; details: Pseudomonas aeruginosa, 18 h, Control about 100, replicates
Description: The over-day culture was grown to OD600nm 1.5., diluted again at 1:10,000 in 5 mL LB and incubated with 10 μM of the test compound or the vehicle control for 18 hours at 37 °C and 200 rpm in an incubator shaker. After 18 h, 1 mL of culture was centrifuged for 2 min at 20.000 x g. The supernatant was transferred to a new tube, 200 μL of this were loaded in a flat-bottom 96-well plate, and the pyocyanin levels were quantified by measuring at OD690nm in the infinite F200 plate reader using the Magellan software (Tecan, Switzerland). The same procedure was also followed for the pyocyanin production assessment for all the P. aeruginosa clinical isolates assessed in this study. The percent of pyocyanin was calculated compared to the PA14 culture grown in the absence of compounds.
Pyocyanin production was measured in 16 P.
aeruginosa clinical isolates 18hr post-growth in the presence or absence of 10 µM of each NAM
compound. The percent of pyocyanin production was calculated by comparing the same strain grown
in the presence of the vehicle control. b.

PA14 AT/P cells = experiment: AT/P cells formation assay in PA14; format: cell-based, Pseudomonas aeruginosa; details: Pseudomonas aeruginosa, PA14, 24 h, read-out: inhibition of AT/P cells formation
[5] = Solubility in iPBS pH 7.4 by HPLC; format: physicochemical; details: pH 7.4, aqueous with cosolvent or surfactant or cyclodextrin, kinetic from dmso stock
Description: Solubility of the 10 mM compounds dissolved in DMSO was tested in the isotonic phosphate buffer (iPBS) at pH 7.4 using High-Performance Liquid Chromatography (HPLC). For the preparation of iPBS phosphate-buffered saline tab (Sigma-Aldrich 08057-12Tab-F) is dissolved in 500 mL of deionized water and the final composition of the solution contains 10 mM PBS, 2.7 mM KCl, 140 mM NaCl and 0.05% Tween. A total 10 µL of the compound from a 10 mM stock solution in DMSO was added to the vial, and 190 µL of buffer was added to each vial and mixed with shaking at room temperature for 4 h. Thereafter the samples were filtered, and 160 µL of the sample was mixed with 40 µL of DMSO for the final injection. Ibuprofen (high solubility) and Progesterone (low Solubility) were used as standard compounds. Ammonium Acetate aqueous solution (50 mM, pH 7.4) and the acetonitrile were used as mobile phases A and B, respectively. The measurement of concentration was achieved by comparing of UV absorbance of the sample solution and the known standard solution following an HPLC separation using a generic fast gradient method. The solubility of each compound is expressed by the ratio of compound amount in the sample test solution to the amount of compound in the standard solution.

[6] = tested on: mvfR mutant constitutively expressing the pqsABCDE operon; format: cell-based; details: Pseudomonas aeruginosa, control about 100, single replicates (Figure 4a)
[7] = tested on: PA14 isogenic mutant ΔmvfR AT/P cells; experiment: AT/P cell formation in ΔmvfR mutant (off-target); details: Pseudomonas aeruginosa, PA14, 24 h, read-out: AT/P cell formation, ΔmvfR + compound; PA14 about 100; single replicates (Figure 4b)
ΔmvfR biofilm = experiment: Biofilm formation of ΔmvfR mutant (off-target); details: Pseudomonas aeruginosa, PA14, 24 h, read-out: Biofilm formation, ΔmvfR + compound; PA14 about 100; single replicates (Figure 4c)
Description: Biofilm was grown in the 96-well microtiter plate at 37 °C for 24 h containing M63 minimal media in the presence of 10 µM of the compounds or vehicle. The biofilm grown with the vehicle was considered as a control. The percentage value was calculated in comparison to the PA14 control. a–c Data represent at least n = 3, each dot on the graph represents one biological replicate. The number of biological replicates for each compound and strain is depicted in the graph. The error bars denote ±SEM.
The overnight grown starter culture was diluted 1:1000 in 5 mL LB media in a glass tube and was incubated at 37 °C and 200 rpm in an incubator shaker until the culture reached an OD600nm 3.0. The culture was then diluted at 1:100 in M63 minimal media supplemented with 0.2% glucose, 0.5% Casamino Acids, and 1 mM MgSO4. Initiation of the Biofilm formation was performed in the 96 well plates; 200 µL of diluted culture was added in the wells with (10 µM) or without compounds. The cultures were allowed to grow at 37 °C in static conditions for 24 hours. Thereafter, planktonic culture was removed from the wells, and wells were washed three times with distilled water (DW). Biofilm was stained with 0.1% crystal violet and incubated for 15 min at room temperature (RT). Access dye was removed from the wells and washed off three times with DW, and 200 µL ethanol: acetone (80:20) was added to the wells. The plate was incubated for 30 min at RT, and the OD was measured by spectrophotometry at 570 nm in the infinite F200 plate reader using the Magellan software (Tecan, Switzerland). Percent biofilm formation was calculated in comparison to PA14 culture that was grown in the absence of compounds.

Structure (SMILES): N#Cc1ccc(NC(=O)CC(=O)Nc2cccc(Cl)c2)cc1 [D71]
- % Production pqsA-GFP [1]: 10%
- Response Unit (RU) (MvfR protein (MvfRC87); Concentration 1.00E-05 M): 31.7 RU
- Response Unit (RU) (MvfR protein (MvfRC87); Concentration 1.00E-06 M): 19.5 RU
- Response Unit (RU) (MvfR protein (MvfRC87); Concentration 1.00E-07 M): 5.9 RU
- Response Unit (RU) (MvfR protein (MvfRC87); Concentration 1.00E-08 M): 2.4 RU
- Response Unit (RU) (MvfR protein (MvfRC87); Concentration 3.16E-06 M): 26.8 RU
- Response Unit (RU) (MvfR protein (MvfRC87); Concentration 3.16E-07 M): 11.4 RU
- Response Unit (RU) (MvfR protein (MvfRC87); Concentration 3.16E-08 M): 3.1 RU
- % Production Pyocyanin [2]: 13%
- % Production 2-AA ([3]; PA14, 50µM inhibitor): 57%
- % Production DHQ ([3]; PA14, 50µM inhibitor): 92%
- % Production HHQ ([3]; PA14, 50µM inhibitor): 106%
- % Production HQNO ([3]; PA14, 50µM inhibitor): 127%
- % Production PQS ([3]; PA14, 50µM inhibitor): 105%
- % Production AA ([3]; PA14, 50µM inhibitor, anthranilic acid, precursor control): 207%

Structure (SMILES): N#Cc1ccc(NC(=O)CC(=O)Nc2ccc(C#N)c(Cl)c2)cc1 [D95]
- activity at 50 µM ([1]; Pseudomonas aeruginosa, PA14, read-out: % Production pqsA-GFP): 6%
- IC50 ([1]; Pseudomonas aeruginosa, PA14, read-out: IC50 pqsA-GFP expression, PA14, 13 concentrations): 1090 nM
- activity at 10 µM ([4]; read-out: Pyocyanin production relative to Control, clinical isolate LGR-4325): 11.5%
- activity at 10 µM ([4]; read-out: Pyocyanin production relative to Control, clinical isolate LGR-4326): 6.63%
- activity at 10 µM ([4]; read-out: Pyocyanin production relative to Control, clinical isolate LGR-4327): 14.1%
- activity at 10 µM ([4]; read-out: Pyocyanin production relative to Control, clinical isolate LGR-4328): 16.3%
- activity at 10 µM ([4]; read-out: Pyocyanin production relative to Control, clinical isolate LGR-4330): 19.6%
- activity at 10 µM ([4]; read-out: Pyocyanin production relative to Control, clinical isolate LGR-4331 (first section, r117)): 14.8%
- activity at 10 µM ([4]; read-out: Pyocyanin production relative to Control, clinical isolate LGR-4331 (second section, r140)): 7.46%
- activity at 10 µM ([4]; read-out: Pyocyanin production relative to Control, clinical isolate LGR-4333): 9.75%
- activity at 10 µM ([4]; read-out: Pyocyanin production relative to Control, clinical isolate LGR-4343): 12.1%
- activity at 10 µM ([4]; read-out: Pyocyanin production relative to Control, clinical isolate LGR-4344): 14.6%
- activity at 10 µM ([4]; read-out: Pyocyanin production relative to Control, clinical isolate LGR-4348): 19.2%
- activity at 10 µM ([4]; read-out: Pyocyanin production relative to Control, clinical isolate LGR-4356): 7.92%
- activity at 10 µM ([4]; read-out: Pyocyanin production relative to Control, clinical isolate LGR-4362): 30.4%
- activity at 10 µM ([4]; read-out: Pyocyanin production relative to Control, clinical isolate LGR-4363): 9.55%
- activity at 10 µM ([4]; read-out: Pyocyanin production relative to Control, clinical isolate LGR-4364 (first section, r326)): 8.11%
- activity at 10 µM ([4]; read-out: Pyocyanin production relative to Control, clinical isolate LGR-4364 (second section, r349)): 13.7%
- inhibition at 10 µM (PA14 AT/P cells): ≥ 51%
- solubility at 4 h [5]: 17 µM (≈ 5.76 µg/mL)
- activity at 50 µM ([2]; Pseudomonas aeruginosa, PA14, 18 h, read-out: % Production Pyocyanin): 4%
- IC50 ([2]; Pseudomonas aeruginosa, PA14, read-out: IC50 pyocyanin production): 900 nM
- activity at 50 µM ([6]; read-out: DHQ, ΔmvfR-pqsABCD strain): 95.2%
- activity at 50 µM ([6]; read-out: HQNO, ΔmvfR-pqsABCD strain): 97.2%
- activity at 50 µM ([6]; read-out: PQS, ΔmvfR-pqsABCD strain): 100%
- activity at 50 µM ([3]; PA14, read-out: % Production 2-AA): 11%
- activity at 50 µM ([3]; PA14, read-out: % Production AA): 774%
- activity at 50 µM ([3]; PA14, read-out: % Production DHQ): 13%
- activity at 50 µM ([3]; PA14, read-out: % Production HHQ): 5%
- activity at 50 µM ([3]; PA14, read-out: % Production HQNO): 30%
- activity at 50 µM ([3]; PA14, read-out: % Production PQS): 10%
- inhibition at 50 µM ([3]; PA14, read-out: HHQ production inhibition): 89 to 99%
- inhibition at 50 µM ([3]; PA14, read-out: HQNO production inhibition): 40 to 92%
- inhibition at 50 µM ([3]; PA14, read-out: PQS production inhibition): 76 to 97%
- inhibition at 50 µM ([3]; PA14, read-out: inhibition of 2-AA production): 82 to 95%
- inhibition at 50 µM ([3]; PA14, read-out: inhibition of DHQ production): 82 to 96%
- activity at 10 µM [7]: 35.3%
- activity at 10 µM (ΔmvfR biofilm): 17.7%

Structure (SMILES): Cc1cc(F)ccc1NCC(=O)Nc1ccc(C(F)(F)F)cc1 [G2]
- % Production pqsA-GFP [1]: 46%
- % Production Pyocyanin [2]: 61%
- % Production 2-AA ([3]; PA14, 50µM inhibitor): 68%
- % Production DHQ ([3]; PA14, 50µM inhibitor): 81%
- % Production HHQ ([3]; PA14, 50µM inhibitor): 110%
- % Production HQNO ([3]; PA14, 50µM inhibitor): 86%
- % Production PQS ([3]; PA14, 50µM inhibitor): 93%

Structure (SMILES): Cc1cc(F)ccc1NCC(=O)Nc1ccccc1C#N [G3]
- % Production pqsA-GFP [1]: 96%
- % Production Pyocyanin [2]: 113%
- % Production 2-AA ([3]; PA14, 50µM inhibitor): 123%
- % Production HHQ ([3]; PA14, 50µM inhibitor): 99%
- % Production HQNO ([3]; PA14, 50µM inhibitor): 111%
- % Production PQS ([3]; PA14, 50µM inhibitor): 122%

Structure (SMILES): Cc1cc(F)ccc1NCC(=O)Nc1ccc(F)cc1 [G4]
- % Production pqsA-GFP [1]: 92%
- % Production Pyocyanin [2]: 84%
- % Production 2-AA ([3]; PA14, 50µM inhibitor): 80%
- % Production DHQ ([3]; PA14, 50µM inhibitor): 85%
- % Production HHQ ([3]; PA14, 50µM inhibitor): 95%
- % Production HQNO ([3]; PA14, 50µM inhibitor): 92%
- % Production PQS ([3]; PA14, 50µM inhibitor): 88%

Source: paper PMC9428149, “Tackling recalcitrant Pseudomonas aeruginosa infections in critical illness via anti-virulence monotherapy” (Nature Communications, 2022)
